Assay results as given in ChEMBL document CHEMBL4304811, “Development of a Water-Soluble Indolylmaleimide Derivative IM-93 Showing Dual Inhibition of Ferroptosis and NETosis” (ACS Med Chem Lett, 2019).
Activity calls are given as the source filed them. No cut-off for these calls is given here.

Legend:
[1] = target: Mitogen-activated protein kinase 7 (Homo sapiens) (UniProt Q13164); experiment: Binding affinity to wild-type human partial length ERK5 (M1 to A409 residues) expressed in bacterial expression system assessed as residual binding level at 10 uM by Kinomescan method relative to control
[2] = target: Protein kinase C theta type (Homo sapiens) (UniProt Q04759); experiment: Binding affinity to wild-type human partial length PRKCQ (L350 to S706 residues) expressed in bacterial expression system assessed as residual binding level at 10 uM by Kinomescan method relative to control
[3] = target: Serine/threonine-protein kinase WNK3 (Homo sapiens) (UniProt Q9BYP7); experiment: Binding affinity to wild-type human partial length WNK3 (M1 to D434 residues) expressed in mammalian expression system assessed as residual binding level at 10 uM by Kinomescan method relative to control
[4] = target: Ribosomal protein S6 kinase alpha-5 (Homo sapiens) (UniProt O75582); experiment: Binding affinity to wild-type human partial length C-terminal RPS6KA5 kinase domain 2 (V390 to T718 residues) expressed in bacterial expression system assessed as residual binding level at 10 uM by Kinomescan method relative to control
[5] = target: Mitogen-activated protein kinase kinase kinase 9 (Homo sapiens) (UniProt P80192); experiment: Binding affinity to wild-type human partial length MLK1 (V88 to W426 residues) expressed in bacterial expression system assessed as residual binding level at 10 uM by Kinomescan method relative to control
Sequence of Mitogen-activated protein kinase kinase kinase 9 (Homo sapiens) (P80192 whole entry, looked up, the tested form may be a part): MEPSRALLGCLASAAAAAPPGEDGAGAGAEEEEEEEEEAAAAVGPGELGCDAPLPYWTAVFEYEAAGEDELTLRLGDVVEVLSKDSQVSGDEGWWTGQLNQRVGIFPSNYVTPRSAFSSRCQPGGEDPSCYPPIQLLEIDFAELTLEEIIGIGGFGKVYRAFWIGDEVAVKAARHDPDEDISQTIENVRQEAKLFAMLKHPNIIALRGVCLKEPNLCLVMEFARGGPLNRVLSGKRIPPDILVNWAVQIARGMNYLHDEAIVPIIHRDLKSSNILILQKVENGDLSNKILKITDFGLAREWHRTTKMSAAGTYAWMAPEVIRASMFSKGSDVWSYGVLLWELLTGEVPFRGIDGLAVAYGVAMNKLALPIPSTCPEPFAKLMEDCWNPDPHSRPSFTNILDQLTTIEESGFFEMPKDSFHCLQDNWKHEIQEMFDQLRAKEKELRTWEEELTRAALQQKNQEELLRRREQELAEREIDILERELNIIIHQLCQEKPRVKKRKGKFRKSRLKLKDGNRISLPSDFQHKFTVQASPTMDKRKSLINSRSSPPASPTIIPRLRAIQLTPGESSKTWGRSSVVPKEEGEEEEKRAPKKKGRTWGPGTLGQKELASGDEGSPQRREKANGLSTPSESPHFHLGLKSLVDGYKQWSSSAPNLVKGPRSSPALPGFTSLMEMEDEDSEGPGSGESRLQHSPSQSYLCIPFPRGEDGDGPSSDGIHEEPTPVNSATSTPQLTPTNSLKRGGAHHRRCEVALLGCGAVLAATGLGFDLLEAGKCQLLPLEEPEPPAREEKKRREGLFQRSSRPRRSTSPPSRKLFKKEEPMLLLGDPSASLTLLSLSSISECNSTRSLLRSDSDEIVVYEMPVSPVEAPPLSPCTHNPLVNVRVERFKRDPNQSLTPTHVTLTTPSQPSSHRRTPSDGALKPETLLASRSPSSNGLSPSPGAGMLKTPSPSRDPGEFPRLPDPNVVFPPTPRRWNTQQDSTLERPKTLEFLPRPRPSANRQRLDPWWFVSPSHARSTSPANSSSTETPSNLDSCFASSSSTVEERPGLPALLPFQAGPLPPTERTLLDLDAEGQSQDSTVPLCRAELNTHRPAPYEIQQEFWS

[6] = target: BDNF/NT-3 growth factors receptor (Homo sapiens) (UniProt Q16620); experiment: Binding affinity to wild-type human partial length TRKB (Q547 to G838 residues) expressed in mammalian expression system assessed as residual binding level at 10 uM by Kinomescan method relative to control
[7] = target: Mast/stem cell growth factor receptor Kit (Homo sapiens) (UniProt P10721); experiment: Binding affinity to wild-type human partial length autoinhibited KIT (Y545 to D952 residues) expressed in mammalian expression system assessed as residual binding level at 10 uM by Kinomescan method relative to control
Sequence of Mast/stem cell growth factor receptor Kit (Homo sapiens) (P10721 whole entry, the tested form may be a part): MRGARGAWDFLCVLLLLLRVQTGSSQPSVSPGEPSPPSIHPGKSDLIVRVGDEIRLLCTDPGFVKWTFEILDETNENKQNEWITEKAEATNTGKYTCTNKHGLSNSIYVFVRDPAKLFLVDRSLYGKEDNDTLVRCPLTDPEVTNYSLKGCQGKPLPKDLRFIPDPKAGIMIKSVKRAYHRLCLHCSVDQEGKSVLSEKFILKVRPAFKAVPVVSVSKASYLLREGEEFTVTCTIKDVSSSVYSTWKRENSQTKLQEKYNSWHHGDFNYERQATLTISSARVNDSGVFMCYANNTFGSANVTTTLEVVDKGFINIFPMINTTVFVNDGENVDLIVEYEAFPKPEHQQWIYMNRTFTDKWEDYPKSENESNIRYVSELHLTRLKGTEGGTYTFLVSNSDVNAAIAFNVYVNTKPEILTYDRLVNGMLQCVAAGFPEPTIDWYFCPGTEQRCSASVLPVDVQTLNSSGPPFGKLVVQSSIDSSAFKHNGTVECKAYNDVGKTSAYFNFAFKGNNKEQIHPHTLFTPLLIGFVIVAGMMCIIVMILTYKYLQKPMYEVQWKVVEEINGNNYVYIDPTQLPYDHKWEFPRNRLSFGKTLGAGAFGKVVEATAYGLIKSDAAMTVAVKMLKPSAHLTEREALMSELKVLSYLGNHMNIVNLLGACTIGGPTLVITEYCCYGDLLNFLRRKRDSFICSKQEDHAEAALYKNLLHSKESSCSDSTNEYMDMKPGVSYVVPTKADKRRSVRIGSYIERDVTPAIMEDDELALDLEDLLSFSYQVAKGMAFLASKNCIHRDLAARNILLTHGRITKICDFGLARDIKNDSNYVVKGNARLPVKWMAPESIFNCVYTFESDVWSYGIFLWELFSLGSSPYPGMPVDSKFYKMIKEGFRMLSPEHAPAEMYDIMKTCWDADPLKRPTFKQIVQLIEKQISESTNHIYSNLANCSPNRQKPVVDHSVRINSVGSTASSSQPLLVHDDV

[8] = target: Serine/threonine-protein kinase Nek6 (Homo sapiens) (UniProt Q9HC98); experiment: Binding affinity to wild-type human full length NEK6 (M8 to T313 residues) expressed in bacterial expression system assessed as residual binding level at 10 uM by Kinomescan method relative to control
Sequence of Serine/threonine-protein kinase Nek6 (Homo sapiens) (Q9HC98 whole entry, the tested form may be a part): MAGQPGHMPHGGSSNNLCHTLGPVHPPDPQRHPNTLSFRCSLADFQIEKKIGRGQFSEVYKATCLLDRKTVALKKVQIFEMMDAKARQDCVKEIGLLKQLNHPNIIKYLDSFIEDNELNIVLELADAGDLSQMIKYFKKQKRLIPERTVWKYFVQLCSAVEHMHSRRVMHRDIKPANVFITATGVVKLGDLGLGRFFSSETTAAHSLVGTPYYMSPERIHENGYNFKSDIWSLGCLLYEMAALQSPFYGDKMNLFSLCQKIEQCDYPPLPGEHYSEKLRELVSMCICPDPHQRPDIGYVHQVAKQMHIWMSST

[9] = target: Tyrosine-protein kinase JAK2 (Homo sapiens) (UniProt O60674); experiment: Binding affinity to wild-type human partial length JAK2 JH1 catalytic domain (A829 to G1132 residues) expressed in mammalian expression system assessed as residual binding level at 10 uM by Kinomescan method relative to control
Sequence of Tyrosine-protein kinase JAK2 (Homo sapiens) (O60674 whole entry, the tested form may be a part): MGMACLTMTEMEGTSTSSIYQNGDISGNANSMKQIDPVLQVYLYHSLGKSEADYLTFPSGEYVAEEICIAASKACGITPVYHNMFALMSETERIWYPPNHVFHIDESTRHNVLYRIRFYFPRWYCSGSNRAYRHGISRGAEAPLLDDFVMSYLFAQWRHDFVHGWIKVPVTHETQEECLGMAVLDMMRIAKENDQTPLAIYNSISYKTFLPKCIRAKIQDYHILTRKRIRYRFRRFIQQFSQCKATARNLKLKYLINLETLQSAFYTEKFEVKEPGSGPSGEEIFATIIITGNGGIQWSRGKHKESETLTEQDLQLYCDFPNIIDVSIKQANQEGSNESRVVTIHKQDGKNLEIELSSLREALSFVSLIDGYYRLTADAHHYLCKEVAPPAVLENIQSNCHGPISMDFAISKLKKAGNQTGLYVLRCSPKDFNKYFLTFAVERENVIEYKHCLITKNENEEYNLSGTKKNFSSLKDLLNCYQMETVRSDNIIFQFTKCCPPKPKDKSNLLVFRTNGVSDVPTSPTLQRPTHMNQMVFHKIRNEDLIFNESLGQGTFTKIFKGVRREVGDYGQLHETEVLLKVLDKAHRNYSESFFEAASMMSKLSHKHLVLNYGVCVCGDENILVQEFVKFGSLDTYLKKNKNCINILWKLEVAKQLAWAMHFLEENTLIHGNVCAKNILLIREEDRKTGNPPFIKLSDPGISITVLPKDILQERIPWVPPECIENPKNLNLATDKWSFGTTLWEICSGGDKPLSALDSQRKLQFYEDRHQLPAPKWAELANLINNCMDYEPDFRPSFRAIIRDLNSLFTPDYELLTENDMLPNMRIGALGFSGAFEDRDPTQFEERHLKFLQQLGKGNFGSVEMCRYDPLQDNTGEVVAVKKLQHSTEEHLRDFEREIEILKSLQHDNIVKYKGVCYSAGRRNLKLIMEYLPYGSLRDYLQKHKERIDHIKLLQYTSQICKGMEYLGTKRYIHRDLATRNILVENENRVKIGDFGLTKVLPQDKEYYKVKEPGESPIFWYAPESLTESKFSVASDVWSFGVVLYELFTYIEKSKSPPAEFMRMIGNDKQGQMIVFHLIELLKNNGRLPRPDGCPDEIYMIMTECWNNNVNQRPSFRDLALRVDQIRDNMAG

[10] = test system: Receptor-type tyrosine-protein kinase FLT3 (Homo sapiens), P36888 [K663Q]; experiment: Binding affinity to human partial length FLT3 K663Q mutant (V592 to Y969 residues) expressed in bacterial expression system assessed as residual binding level at 10 uM by Kinomescan method relative to control
[11] = target: Ribosomal protein S6 kinase beta-1 (Homo sapiens) (UniProt P23443); experiment: Binding affinity to wild-type human partial length S6K1 (M1 to S421 residues) expressed in mammalian expression system assessed as residual binding level at 10 uM by Kinomescan method relative to control
[12] = target: Mitogen-activated protein kinase kinase kinase 4 (Homo sapiens) (UniProt Q9Y6R4); experiment: Binding affinity to wild-type human partial length MAP3K4 (G1319 to E1608 residues) expressed in bacterial expression system assessed as residual binding level at 10 uM by Kinomescan method relative to control
[13] = target: Phosphatidylinositol 4-phosphate 3-kinase C2 domain-containing subunit beta (Homo sapiens) (UniProt O00750); experiment: Binding affinity to wild-type human partial length PIK3C2B (M1 to L1634 residues) expressed in mammalian expression system assessed as residual binding level at 10 uM by Kinomescan method relative to control
[14] = target: Ribosomal protein S6 kinase alpha-4 (Homo sapiens) (UniProt O75676); experiment: Binding affinity to wild-type human partial length C-terminal RPS6KA4 kinase domain 2 (M375 to T705 residues) expressed in mammalian expression system assessed as residual binding level at 10 uM by Kinomescan method relative to control
Sequence of Ribosomal protein S6 kinase alpha-4 (Homo sapiens) (O75676 whole entry, looked up, the tested form may be a part): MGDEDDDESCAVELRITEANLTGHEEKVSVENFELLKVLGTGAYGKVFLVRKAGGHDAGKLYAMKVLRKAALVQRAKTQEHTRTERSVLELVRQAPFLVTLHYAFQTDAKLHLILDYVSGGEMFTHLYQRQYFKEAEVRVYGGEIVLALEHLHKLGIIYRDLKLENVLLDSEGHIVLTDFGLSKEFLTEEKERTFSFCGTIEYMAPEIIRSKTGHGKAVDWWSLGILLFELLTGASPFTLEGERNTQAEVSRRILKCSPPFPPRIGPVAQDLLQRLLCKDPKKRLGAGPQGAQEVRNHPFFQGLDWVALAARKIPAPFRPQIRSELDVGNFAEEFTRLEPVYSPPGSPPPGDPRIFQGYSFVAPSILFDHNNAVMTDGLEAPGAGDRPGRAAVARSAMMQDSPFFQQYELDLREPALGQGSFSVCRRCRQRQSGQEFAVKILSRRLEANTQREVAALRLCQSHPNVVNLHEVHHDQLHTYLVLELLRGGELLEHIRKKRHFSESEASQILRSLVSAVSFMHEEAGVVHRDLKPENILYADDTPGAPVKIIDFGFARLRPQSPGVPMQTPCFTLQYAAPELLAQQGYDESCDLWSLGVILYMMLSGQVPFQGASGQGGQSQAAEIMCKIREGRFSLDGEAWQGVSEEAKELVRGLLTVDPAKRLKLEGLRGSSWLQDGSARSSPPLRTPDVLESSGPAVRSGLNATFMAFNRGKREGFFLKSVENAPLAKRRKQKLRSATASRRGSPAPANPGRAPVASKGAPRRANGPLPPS

[15] = target: Cyclin-dependent kinase 16 (Homo sapiens) (UniProt Q00536); experiment: Binding affinity to wild-type human partial length PCTK1 (G160 to A474 residues) expressed in mammalian expression system assessed as residual binding level at 10 uM by Kinomescan method relative to control
[16] = target: cGMP-dependent protein kinase 1 (Homo sapiens) (UniProt Q13976); experiment: Binding affinity to wild-type human partial length PRKG1 (L339 to F686 residues) expressed in bacterial expression system assessed as residual binding level at 10 uM by Kinomescan method relative to control
[17] = target: Dual specificity protein kinase CLK3 (Homo sapiens) (UniProt P49761); experiment: Binding affinity to wild-type human full length CLK3 (M1 to R490 residues) expressed in bacterial expression system assessed as residual binding level at 10 uM by Kinomescan method relative to control
[18] = target: Focal adhesion kinase 1 (Homo sapiens) (UniProt Q05397); experiment: Binding affinity to wild-type human partial length FAK (D402 to R696 residues) expressed in bacterial expression system assessed as residual binding level at 10 uM by Kinomescan method relative to control
[19] = target: Tyrosine-protein kinase Blk (Homo sapiens) (UniProt P51451); experiment: Binding affinity to wild-type human partial length BLK (G211 to L503 residues) expressed in bacterial expression system assessed as residual binding level at 10 uM by Kinomescan method relative to control
Sequence of Tyrosine-protein kinase Blk (Homo sapiens) (P51451 2-505 limits assumed): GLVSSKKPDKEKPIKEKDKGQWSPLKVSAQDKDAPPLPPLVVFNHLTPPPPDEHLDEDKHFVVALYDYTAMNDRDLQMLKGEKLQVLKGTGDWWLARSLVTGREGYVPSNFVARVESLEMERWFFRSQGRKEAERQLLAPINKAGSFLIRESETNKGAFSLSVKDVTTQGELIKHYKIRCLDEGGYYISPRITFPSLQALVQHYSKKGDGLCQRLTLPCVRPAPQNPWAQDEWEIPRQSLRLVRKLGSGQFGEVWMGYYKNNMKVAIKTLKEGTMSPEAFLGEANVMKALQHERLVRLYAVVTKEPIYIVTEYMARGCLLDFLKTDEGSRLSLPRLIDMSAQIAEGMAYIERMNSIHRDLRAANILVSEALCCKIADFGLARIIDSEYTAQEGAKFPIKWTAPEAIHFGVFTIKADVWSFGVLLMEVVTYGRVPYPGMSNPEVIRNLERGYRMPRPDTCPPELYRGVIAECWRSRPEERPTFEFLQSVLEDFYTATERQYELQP

[20] = target: Non-receptor tyrosine-protein kinase TYK2 (Homo sapiens) (UniProt P29597); experiment: Binding affinity to wild-type human partial length TYK2 JH2 pseudokinase domain (G556 to D888 residues) expressed in mammalian expression system assessed as residual binding level at 10 uM by Kinomescan method relative to control
[21] = target: Rho-associated protein kinase 2 (Homo sapiens) (UniProt O75116); experiment: Binding affinity to wild-type human partial length ROCK2 (M1 to T431 residues) expressed in mammalian expression system assessed as residual binding level at 10 uM by Kinomescan method relative to control
[22] = target: Hormonally up-regulated neu tumor-associated kinase (Homo sapiens) (UniProt P57058); experiment: Binding affinity to wild-type human partial length HUNK (A31 to K354 residues) expressed in bacterial expression system assessed as residual binding level at 10 uM by Kinomescan method relative to control
[23] = target: Calcium/calmodulin-dependent protein kinase type II subunit beta (Homo sapiens) (UniProt Q13554); experiment: Binding affinity to wild-type human partial length CAMK2B (M1 to Q380 residues) expressed in bacterial expression system assessed as residual binding level at 10 uM by Kinomescan method relative to control
THP-1 = experiment: Inhibition of Staphylococcus aureus-induced pyroptosis in human THP1 cells at 10 uM preincubated for 1 hr followed by bacterial infection and measured after 2 hrs by INT dye based LDH assay; assay type: functional, cell-based

Structure (SMILES): CC(C)N1C(=O)C(NCCCN(C)C)=C(c2cn(C)c3ccccc23)C1=O.Cl
- Activity [1]: 100%
- Activity [2]: 100%
- Activity [3]: 78%
- Activity [4]: 96%
- Activity [5]: 100%
- Activity [6]: 94%
- Activity [7]: 66%
- Activity [8]: 100%
- Activity [9]: 86%
- Activity [10]: 97%
- Activity [11]: 77%
- Activity [12]: 85%
- Activity [13]: 81%
- Activity [14]: 74%
- Activity [15]: 92%
- Activity [16]: 91%
- Activity [17]: 92%
- Activity [18]: 100%
- Activity [19]: 98%
- Activity [20]: 88%
- Activity [21]: 100%
- Activity [22]: 100%
- Activity [23]: 100%
- inhibition (THP-1): inactive
